Reference: patent US5106407A, “Iodones and methods for antimicrobial use” (priority 1989, dated 1992)
Converted amounts (≈) assume the structure as drawn. Like-named read-outs stand apart in the source and are kept apart here.

Experiments:
Test in all cases: minimum inhibitory concentration (MIC), agar dilution
Type in all cases: cell-based
Proteus vulgaris = conditions: ATCC 881
Experimental: (§1) The minimum inhibitory concentration (MIC) for the compound of Example 19, i.e., (2-nitrophenyl)-iodonium 2,2-dimethyl-4,6-dioxo-1,3-dioxan-5-ylide was determined for 9 bacteria (using nutrient agar) and 5 yeast and fungi (using malt yeast agar). A one percent solution of this test compound (i.e., the compound of Example 19) was prepared in a mixture of acetone-water. Nutrient agar was prepared at pH 6.8 using deionized water according to standard Difco procedures. Malt yeast agar was prepared by adding 3 g Bacto yeast extract and 42 g Bacto Malt agar per liter of deionized water. The agar (nutrient agar when testing with bacteria and malt yeast agar when testing with yeast and fungi) was dispensed in 30 mL aliquots into 25×200 millimeter (mm) test tubes, capped and autoclaved for 15 min at 115° C. The test tubes containing the agar were cooled in a water bath until the temperature of the agar was 48° C. and then an appropriate amount of the one percent solution of the test compound was added (except in the controls where no test compound was added with the acetone-water) to the respective test tubes so that final concentrations of 500, 250, 100, 50, 25, 10, 5, 2.5, 1.0 and 0 parts per million (ppm) of the test compound in the agar were obtained. The agar solutions were each mixed and poured into individual petri plates so that each petri plate contained agar having a known concentration of test compound dispersed therein. After drying for 24 hr, the petri plates were inoculated with bacteria when the petri plates contained nutrient broth agar or with fungi and yeast when the petri plates contained malt yeast agar.
(§2) The inoculation with bacteria was accomplished using the following procedure. Twenty-four hr cultures of each of the bacteria were prepared by incubating the respective bacteria in tubes containing nutrient broth for 24 hr at 30° C. in a shaker. Dilutions of each of the 24 hr cultures were made so that 9 separate suspensions (one for each of the 9 test bacteria) were made, each containing about 10^8 colony forming units (CFU) per mL of suspension of a particular bacteria. Aliquots of 0.3 mL of each of the above suspensions were used to fill individual wells of a Steer's Replicator. For each microbial suspension, 0.3 mL was used to fill 3 wells (i.e., 3 wells of 0.3 mL each) so that for the 9 different bacteria 27 wells were filled. The Steer's Replicator was then used to inoculate the petri plates.
(§3) The petri plates were incubated at 30° C. for 48 hr and then read to determine if the test compound (i.e., the compound of Example 19) which was incorporated into the agar prevented growth of the respective bacteria. The minimum inhibitory concentration (MIC) for each bacteria was defined as the lowest concentration of the test compound which prevented growth of that bacteria.
(§4) In a similar procedure, the MIC (in ppm) of the compound of Example 11 (i.e., (2-nitrophenyl)-iodonium 2,6-dioxocyclohexylide) for various organisms was determined at an acid pH (about 6.8) and at an alkaline pH (about 8.2).

Salmonella choleraesuis = test system: Salmonella choleraesuis
Experimental: as §1, §2, §3, §4

Pseudomonas aeruginosa = conditions: ATCC 10145
Experimental: as §1, §2, §3, §4

Klebsiella pneumoniae = conditions: ATCC 8308
Experimental: as §1, §2, §3, §4

Staphylococcus aureus = conditions: ATCC 8538
Experimental: as §1, §2, §3, §4

[1] = test system: Pseudomonas aeruginosa PRD-10; conditions: ATCC 15442
Experimental: as §1, §2, §3, §4

Escherichia coli = conditions: ATCC 11229
Experimental: as §1, §2, §3, §4

Enterobacter aerogenes = test system: Enterobacter aerogenes
Experimental: as §1, §2, §3, §4
(§5) Using similar procedures, the MIC's (in ppm) of various compounds of Formula I and/or Formula II were determined for the organisms Enterobacter aerogenes and Bacillus subtilis in a neutral solution (pH about 6.8) and in an alkaline medium (pH about 8.2).

Bacillus subtilis = test system: Bacillus subtilis
Experimental: as §1, §2, §3, §4, §5

[2] = Klebsiella aerogenes, alkaline growth medium (pH = 8.2), read-out: MIC (AEA)
[3] = Klebsiella aerogenes, neutral growth medium (pH = 6.8), read-out: MIC (NEA)
[4] = Bacillus subtilis, alkaline growth medium (pH = 8.2), read-out: MIC (ABS)
[5] = Bacillus subtilis, neutral growth medium (pH = 6.8), read-out: MIC (NBS)

O=C1CCCC(=O)[C-]1[I+]c1ccccc1[N+](=O)[O-] [Example 1, (2-nitrophenyl)-iodonium 2,6-dioxocyclohexylide]
MIC (Proteus vulgaris; Alkaline Medium (pH about 8.2)): ≤ 1.0 ppm
MIC (Proteus vulgaris; Proteus vulgaris, ATCC881, Neutral Medium (pH about 6.8), read-out: MIC): ≤ 1 µg/mL
MIC (Salmonella choleraesuis; ATCC 10708, Alkaline Medium (pH about 8.2)): ≤ 1.0 ppm
MIC (Salmonella choleraesuis; Salmonella enterica, ATCC 10708 / CHOLERAESUIS, Neutral Medium (pH about 6.8), read-out: MIC): ≤ 1 µg/mL
MIC (Pseudomonas aeruginosa; Alkaline Medium (pH about 8.2)): ≤ 1.0 ppm
MIC (Pseudomonas aeruginosa; Pseudomonas aeruginosa, ATCC10145, Neutral Medium (pH about 6.8), read-out: MIC): ≤ 1 µg/mL
MIC (Klebsiella pneumoniae; Alkaline Medium (pH about 8.2)): ≤ 1.0 ppm
MIC (Klebsiella pneumoniae; Klebsiella pneumoniae, ATCC8308, Neutral Medium (pH about 6.8), read-out: MIC): ≤ 1 µg/mL
MIC (Staphylococcus aureus; Alkaline Medium (pH about 8.2)): ≤ 1.0 ppm
MIC (Staphylococcus aureus; Staphylococcus aureus, ATCC8538, Neutral Medium (pH about 6.8), read-out: MIC): ≤ 1 µg/mL
MIC ([1]; Alkaline Medium (pH about 8.2)): ≤ 1.0 ppm
MIC ([1]; Pseudomonas aeruginosa, ATCC15442, Neutral Medium (pH about 6.8), read-out: MIC): ≤ 1 µg/mL
MIC (Escherichia coli; Alkaline Medium (pH about 8.2)): ≤ 1.0 ppm
MIC (Escherichia coli; Escherichia coli, ATCC11229, Neutral Medium (pH about 6.8), read-out: MIC): ≤ 1 µg/mL
MIC (Enterobacter aerogenes; ATCC 13048, Alkaline Medium (pH about 8.2)): ≤ 1.0 ppm
MIC (Enterobacter aerogenes; Klebsiella aerogenes, ATCC13048, ATCC 13048, Neutral Medium (pH about 6.8), read-out: MIC): ≤ 1 µg/mL
MIC (Bacillus subtilis; ATCC 8473, Alkaline Medium (pH about 8.2)): ≤ 1.0 ppm
MIC (Bacillus subtilis; Bacillus subtilis, ATCC8473, ATCC 8473, Neutral Medium (pH about 6.8), read-out: MIC): ≤ 1 µg/mL

Cc1cc(=O)[c-]([I+]c2ccccc2[N+](=O)[O-])c(=O)o1 [Example 47, (2-Nitrophenyl)-iodonium 3,4-dihydro-6-methyl-2,4-dioxo-2H-pyran-3-ylide]
MIC (Enterobacter aerogenes; [2]): 500 µg/mL (≈ 1340 µM)
MIC (Enterobacter aerogenes; [3]): 100 µg/mL (≈ 268 µM)
MIC (Bacillus subtilis; [4]): 500 µg/mL (≈ 1340 µM)
MIC (Bacillus subtilis; [5]): 25 µg/mL (≈ 67 µM)

O=C1c2ccccc2C(=O)[C-]1[I+]c1ccccc1[N+](=O)[O-] [Example 48, (2-Nitrophenyl)-iodonium 2,3-dihydro-1,3-dioxo-1H-indan-2-ylide]
MIC (Enterobacter aerogenes; [2]): 250 µg/mL (≈ 636 µM)
MIC (Enterobacter aerogenes; [3]): 50 µg/mL (≈ 127 µM)
MIC (Bacillus subtilis; [4]): 25 µg/mL (≈ 63.6 µM)
MIC (Bacillus subtilis; [5]): ≤ 1 µg/mL
